The source of these data is patent publication US6630075B2, “Use of fluorinated ketones in fire extinguishing compositions” (3M Innovative Properties Company, priority 1999, dated 2003).

The nature of data set [1]: Micro-Cup Burner Test (extinguishing concentration; Mass Ratio Calculation vs HALON 1211). The text has this: The Micro-Cup Burner Test is a laboratory test which measures the extinguishing ability of an agent based on the quantity of agent required to extinguish a fire under the following test conditions. The Micro-Cup Burner Test utilizes a quartz concentric-tube laminar-diffusion flame burner (micro-cup burner, of similar design to the above-described cup apparatus) aligned vertically with all flows upward. A fuel, typically propane unless otherwise specified, flows at 10.0 sccm (standard cubic centimeters per minute) through a 5-mm I.D. inner quartz tube which is centered in a 15-mm I.D. quartz chimney. The chimney extends 4.5 cm above the inner tube. Air flows through the annular region between the inner tube and the chimney at 1000 sccm. Prior to the addition of extinguishing composition, a visually stable flame is supported on top of the inner tube, and the resulting combustion products flow out through the chimney. An extinguishing composition to be evaluated is introduced into the air stream upstream of the burner. Liquid compositions are introduced by a syringe pump (which is calibrated to within 1%) and are volatilized in a heated trap. Gaseous compositions are introduced via a mass-flow controller to the air stream upstream from the burner. For consistency, the air-gaseous composition mixture then flows through the heated trap prior to its introduction to the flame burner. All gas flows are maintained by electronic mass-flow controllers which are calibrated to within 2%. The fuel is ignited to produce a flame and is allowed to burn for 90 seconds. After 90 seconds, a specific flow rate of composition is introduced, and the time required for the flame to be extinguished is recorded. The reported extinguishing concentrations are the recorded volume % of extinguishing composition in air required to extinguish the flame within an average time of 30 seconds or less.
The above-mentioned cup burner test measures the performance of an extinguishing composition by determining the minimum volume percent of composition in air required to extinguish a test fire. However, it is often desirable to directly compare the fire performance of an experimental extinguishing composition (e.g., a fluorinated ketone) against the performance of a state-of-the-art extinguishing composition, such as HALON™ 1211 fire extinguishing agent (CF2ClBr, a bromochlorofluorocarbon). One way to make such a comparison is to derive the mass ratio of experimental composition to HALON™ 1211 fire extinguishing agent from the volume percentages of each composition required for extinguishing. The mass ratio can be calculated by dividing the experimental composition's extinguishing volume percent by the HALON™ 1211 agent's extinguishing volume percent and multiplying the resulting quotient (which, according to the ideal gas law, also represents the ratio of mole percents) times the weight average molecular weight of the experimental composition divided by the molecular weight of HALON™ 1211 agent (165 g/mole).
In Comparative Example C1, the extinguishing concentration (volume % in air) of HALON™ 1211 fire extinguishing agent was determined as using the Micro-Cup Burner Test.
In Examples 1-16, the extinguishing concentration of several perfluorinated ketones was also determined using the Micro-Cup Burner Test. The mass ratio as compared to HALON™ 1211 fire extinguishing agent was then calculated using the Mass Ratio Calculation.
In Comparative Examples C2-C11, various fluorinated extinguishing compositions known in the art (hydrofluorocarbons, perfluorocarbons, hydrochlorofluorocarbons, hydrofluoroethers, and iodofluorocarbons) were evaluated for their extinguishing concentration, and subsequently their mass ratios were calculated with respect to HALON™ 1211 agent. […]

The next data set has as its system mice. In words: short term inhalation tests with mice. The data set is classed as in vivo. The note with it: mice exposed for four hours at 50,000 ppm in air.
Data set [2] in a line: manual suppression full-scale streaming test, UL Standard 711 pan fires. The note with it: heptane, 60 sec pre-burn. The text has this:
These two examples were run to illustrate the fire performance of a fluorinated ketone of this invention, CF3CF2C(O)CF(CF3)2 (the fluorinated ketone as prepared in Example 1), using a manual suppression full-scale streaming test for a clean extinguishing agent.
For each example, a standard off-the-shelf Amerex 131b HALON™ 1211 handheld extinguisher was used to introduce the extinguishing composition to the fire. The extinguisher was equipped with a standard ½ in (1.3 cm) nominal diameter rubber hose with a clean extinguishing agent nozzle attached to the end. In each case, the composition was super-pressurized using dry nitrogen at 130-150 psi (900-1040 kPa).
Both fire extinguishing tests were run following essentially the same test procedures and conditions as outlined in UL Standard 711 for the 2B and 5B pan fire scenarios, as normally conducted for UL approval at Underwriters Laboratories, Inc., Northbrook, Ill. The only deviation from that test procedure was that the fire tests for these examples were conducted outside. The fire test pans for the respective fires were sized to be 2.5 times larger than the ultimate extinguisher rating. For example, a 2B UL-rated extinguisher rating requires a skilled firefighter to be able to extinguish a 5 ft^2 (0.46 m^2) fire, a 5B UL-rated extinguisher rating requires extinguishing a 12.5 ft^2(1.16 m^2) fire, etc. For both examples, the UL specified pans were 12 in (30 cm) deep, into which was introduced 4.0 in (10 cm) of water, onto which was introduced 2 in (5 cm) of commercial grade heptane for fuel, leaving a 6 in (15 cm) freeboard above the fuel surface. Each fire was allowed to pre-burn 60 seconds before extinguishing commenced, using an agent flow rate of 0.75-0.80 kg/sec. The discharge time for the extinguishing of the fire was recorded as was the amount of agent discharged.

A short description of data set [3]: total flooding evaluation in 1.28 m^3 enclosure (Ohmic Heating Test procedure). As to conditions: 1000 g agent, nitrogen 50 psi. The text has this: This example was run to evaluate the fire performance of a fluorinated ketone of this invention, CF3CF2C(O)CF(CF3)2 (the fluorinated ketone as prepared in Example 1), in a total flooding evaluation for a clean extinguishing agent.
For this evaluation, a 1.28 m^3 (0.915 m×0.915 m×1.525 m) steel reinforced polycarbonate “box” enclosure was used, into which a fixed piping system, normally designed to deliver a gaseous clean extinguishing agent, was filled instead with a composition that is liquid at room temperature and discharged into the “box” to extinguish a fire. Using this modified system and procedure, the liquid fluorinated ketone used, CF3CF2C(O)CF(CF3)2, could be discharged into the enclosure indirectly in the same manner as could a gaseous clean extinguishing agent and thus allow the liquid agent to extinguish an obstructed fire located remotely in the enclosure.
In this modified procedure, a Swagelok Whitey 2000 mL cylinder was filled with 1000 g of CF3CF2C(O)CF(CF3)2 and was super-pressurized with nitrogen to 50 psi (345 kPa). Attached to the bottom of the cylinder was a 0.25 in (0.6 cm) Swagelok Whitey SS1RFA-A stainless steel angle valve, to which was fixed 34 in (86.4 cm) of nominal 0.25 in (6.5 mm) piping arrangement, including a 0.25 in (6.5 mm) Jamesbury Clincher ¼-turn ball valve. The piping was connected to a Bete NF 0500 square edge orifice nozzle. […]

Consider `O=C(C(F)(F)C(F)(F)F)C(F)(C(F)(F)F)C(F)(F)F` [Example 1, 1,1,1,2,4,4,5,5,5-nonafluoro-2-trifluoromethyl-butan-3-one], for which the “Mass Ratio to HALON™ 1211” value in data set [1] (calculated from extinguishing volume % and molecular weight relative to HALON 1211 (165 g/mole)) is reported as 1.86. Moreover, the “Ext. Conc. (vol %)” value in data set [1] (volume % in air required to extinguish the flame within an average time of 30 seconds or less, propane fuel) is reported as 3.5 vol %. The acute toxicity result in the data set with mice was “low acute toxicity”. In addition, in data set [2] (UL 2B pan), the “Agent Discharged” value came out at 2.59 kg and the “Discharge Time” value was determined as 3.5 s. Moreover, in data set [2] (UL 5B pan), the “Agent Discharged” value was 2.87 kg and the “Discharge Time” value came out at 3.8 s. Also, the “time to extinguishing of the obstructed fire from the beginning of agent discharge” value in data set [3] was at most 35 s.
